Measurements: patent US8153809B2, “Dihydropyridone ureas as P2X7 modulators” (Roche Palo Alto LLC, priority 2008, dated 2012)

biological target: T1, P2X7 (UniProt Q99572); assay: pIC50 values for P2X7 (Table 1); format: cell-based
T1 sequence (Q99572 1-595): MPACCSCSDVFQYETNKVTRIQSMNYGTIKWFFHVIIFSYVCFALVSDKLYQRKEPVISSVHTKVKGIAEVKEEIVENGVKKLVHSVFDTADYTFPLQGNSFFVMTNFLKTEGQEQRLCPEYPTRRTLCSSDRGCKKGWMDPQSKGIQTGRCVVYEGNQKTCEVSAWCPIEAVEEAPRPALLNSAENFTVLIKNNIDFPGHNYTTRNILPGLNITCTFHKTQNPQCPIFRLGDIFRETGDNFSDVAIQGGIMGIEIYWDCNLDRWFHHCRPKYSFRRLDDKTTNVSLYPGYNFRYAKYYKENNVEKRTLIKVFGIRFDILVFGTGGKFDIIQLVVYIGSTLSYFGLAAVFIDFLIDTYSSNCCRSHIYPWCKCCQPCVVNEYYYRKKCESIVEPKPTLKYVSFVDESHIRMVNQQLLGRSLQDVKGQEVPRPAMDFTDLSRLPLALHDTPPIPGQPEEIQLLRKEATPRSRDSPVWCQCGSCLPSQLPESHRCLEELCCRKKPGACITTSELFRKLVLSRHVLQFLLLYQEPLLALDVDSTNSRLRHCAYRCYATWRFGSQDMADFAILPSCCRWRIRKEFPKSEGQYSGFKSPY
Outline: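 Fluo-3-loaded 1321N1 cells expressing human P2X7 or HEK293 cells expressing rat P2X7, preincubated 20 min at room temperature with antagonist in HBSS/Hepes/probenecid buffer with 2 mM CaCl2. BzATP agonist at 100 μM final (human) or 5 μM final (rat); fluorescence read 5 min, peak normalized to 5 μM ionomycin response.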

| SMILES | pIC50 |
| --- | --- |
| Cc1cc(NC(=O)N2C=CC(=O)CC2c2ccc(F)cc2)n(C)n1 (stereo not shown) [Compound 108, 2-(4-Fluoro-phenyl)-4-oxo-3,4-dihydro-2H-pyridine-1-carboxylic acid (2,5-dimethyl-2H-pyrazol-3-yl)-amide] | 6.043 |
| Cc1c(CO)cccc1NC(=O)N1C=CC(=O)C[C@H]1c1ccc(F)cc1 [Compound 139, (S)-2-(4-Fluoro-phenyl)-4-oxo-3,4-dihydro-2H-pyridine-1-carboxylic acid (3-hydroxymethyl-2-methyl-phenyl)-amide] | 7.79 |
| O=C1C=CN(C(=O)Nc2ccsc2Br)C(c2ccc(F)cc2)C1 (stereo not shown) [Compound 86, 2-(4-Fluoro-phenyl)-4-oxo-3,4-dihydro-2H-pyridine-1-carboxylic acid (2-bromo-thiophen-3-yl)-amide] | 6.725 |
| CSc1cc(NC(=O)N2C=CC(=O)C[C@H]2c2ccc(F)cc2)c(Br)cc1Cl [Compound 14, (S)-2-(4-Fluoro-phenyl)-4-oxo-3,4-dihydro-2H-pyridine-1-carboxylic acid (2-bromo-4-chloro-5-methylsulfanyl-phenyl)-amide] | 6.726 |
| O=C1C=CN(C(=O)Nc2cc(OCCO)c(Cl)cc2Br)[C@H](c2ccc(F)cc2)C1 [Compound 40, (S)-2-(4-Fluoro-phenyl)-4-oxo-3,4-dihydro-2H-pyridine-1-carboxylic acid [2-bromo-4-chloro-5-(2-hydroxy-ethoxy)-phenyl]-amide] | 7.607 |
| O=C1C=CN(C(=O)Nc2cc(C(F)(F)F)c(Cl)cc2Br)[C@H](c2ccc(F)cc2)C1 [Compound 11, (S)-2-(4-Fluoro-phenyl)-4-oxo-3,4-dihydro-2H-pyridine-1-carboxylic acid (2-bromo-4-chloro-5-trifluoromethyl-phenyl)-amide] | 6.015 |
| O=C1C=CN(C(=O)Nc2cc(F)c(F)cc2Br)C(c2ccc(F)cc2)C1 (stereo not shown) [Compound 157, 2-(4-Fluoro-phenyl)-4-oxo-3,4-dihydro-2H-pyridine-1-carboxylic acid (2-bromo-4,5-difluoro-phenyl)-amide] | 6.43 |
| CCc1cc(OC)c(OC)cc1NC(=O)N1C=CC(=O)C[C@H]1c1ccc(F)cc1 [Compound 87, (S)-2-(4-Fluoro-phenyl)-4-oxo-3,4-dihydro-2H-pyridine-1-carboxylic acid (2-ethyl-4,5-dimethoxy-phenyl)-amide] | 8.36 |
| COC(=O)c1cc(Br)c(NC(=O)N2C=CC(=O)C[C@H]2c2ccc(F)cc2)cc1OC [Compound 38, 5-Bromo-4-{[(S)-2-(4-fluoro-phenyl)-4-oxo-3,4-dihydro-2H-pyridine-1-carbonyl]-amino}-2-methoxy-benzoic acid methyl ester] | 6.89 |
| Cc1ccc(NC(=O)N2C=CC(=O)C[C@H]2c2ccc(F)cc2)cc1C [Compound 158, (S)-2-(4-Fluoro-phenyl)-4-oxo-3,4-dihydro-2H-pyridine-1-carboxylic acid (3,4-dimethyl-phenyl)-amide] | 7.01 |
| COc1cc(NC(=O)N2C=CC(=O)C[C@H]2c2ccc(F)cc2)c(Br)cc1OC(F)F [Compound 42, (S)-2-(4-Fluoro-phenyl)-4-oxo-3,4-dihydro-2H-pyridine-1-carboxylic acid (2-bromo-4-difluoromethoxy-5-methoxy-phenyl)-amide] | 7.503 |
| Cc1cc2cccnc2cc1NC(=O)N1C=CC(=O)C[C@H]1c1ccc(F)cc1 [Compound 102, (S)-2-(4-Fluoro-phenyl)-4-oxo-3,4-dihydro-2H-pyridine-1-carboxylic acid (6-methyl-quinolin-7-yl)-amide] | 6.56 |
| COCCN(C)Cc1cc(NC(=O)N2C=CC(=O)C[C@H]2c2ccc(F)cc2)c(C)cc1Cl [Compound 121, (S)-2-(4-Fluoro-phenyl)-4-oxo-3,4-dihydro-2H-pyridine-1-carboxylic acid (4-chloro-5-{[(2-methoxy-ethyl)-methyl-amino]-methyl}-2-methyl-phenyl)-amide] | 6.43 |
